Legend:
Format in all cases: biochemical
human Aurora A = target: T1, human Aurora A (Homo sapiens, UniProt O14965); test: Aurora A kinase assay (DELFIA enzyme inhibition); settings: read-out: Aurora A IC50
T1 construct: Histidine tag (N); host or cells: Sf9 insect cells (baculovirus)
T1 sequence (O14965 1-403): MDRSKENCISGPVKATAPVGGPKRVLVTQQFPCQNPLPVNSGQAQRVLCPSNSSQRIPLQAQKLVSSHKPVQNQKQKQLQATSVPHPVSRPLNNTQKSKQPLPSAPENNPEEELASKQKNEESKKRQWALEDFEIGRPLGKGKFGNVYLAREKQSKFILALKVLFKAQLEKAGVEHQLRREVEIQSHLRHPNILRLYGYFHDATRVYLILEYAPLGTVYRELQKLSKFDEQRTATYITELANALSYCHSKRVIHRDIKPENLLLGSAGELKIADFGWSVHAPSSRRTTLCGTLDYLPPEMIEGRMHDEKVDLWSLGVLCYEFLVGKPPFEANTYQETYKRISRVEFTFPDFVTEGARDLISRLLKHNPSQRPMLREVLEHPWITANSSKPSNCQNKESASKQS
Method in brief: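 DELFIA read-out (time-resolved Eu fluorescence, 620 nm emission) after Neutravidin capture of biotinylated peptide substrate and antibody detection. Reaction: Ni-agarose-purified Aurora A, 30 min at room temperature, stopped with 100 mM EDTA.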

human FLT4 = target: T2, human FLT4 (Homo sapiens, UniProt P35916); test: FLT4 kinase assay (DELFIA enzyme inhibition); settings: read-out: FLT4 IC50
T2 construct: a construct expressing the human FLT4 (789-1207) with an amino terminal GST tag; host or cells: Sf9 insect cells (baculovirus)
T2 sequence (P35916 789-1207): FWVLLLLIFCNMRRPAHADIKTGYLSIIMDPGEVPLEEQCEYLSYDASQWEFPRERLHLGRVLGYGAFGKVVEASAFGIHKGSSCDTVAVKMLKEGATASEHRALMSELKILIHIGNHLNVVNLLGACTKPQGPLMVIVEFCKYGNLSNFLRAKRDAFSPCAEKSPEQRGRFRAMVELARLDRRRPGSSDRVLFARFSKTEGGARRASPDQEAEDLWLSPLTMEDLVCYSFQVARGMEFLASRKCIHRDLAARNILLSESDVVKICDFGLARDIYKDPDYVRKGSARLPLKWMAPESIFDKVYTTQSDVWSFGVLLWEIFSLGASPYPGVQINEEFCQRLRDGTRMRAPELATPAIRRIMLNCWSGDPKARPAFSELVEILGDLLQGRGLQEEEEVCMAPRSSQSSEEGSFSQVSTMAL
Method in brief: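 GST-tagged human FLT4 (789-1207) from Sf9 cells phosphorylates a biotinylated MET (Tyr1253)-derived peptide for 30 min at room temperature, stopped with EDTA. Phosphopeptide is captured on Neutravidin and detected with Eu-labelled anti-phosphotyrosine antibody by time-resolved fluorescence; IC50 from % inhibition curves.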

human FLT3 = target: T3, human FLT3 (Homo sapiens, UniProt P36888); test: FLT3 kinase assay (DELFIA enzyme inhibition)
T3 construct: a construct expressing the human FLT3 (564-993) with an amino terminal GST tag; host or cells: Sf9 insect cells (baculovirus)
T3 sequence (P36888 564-993): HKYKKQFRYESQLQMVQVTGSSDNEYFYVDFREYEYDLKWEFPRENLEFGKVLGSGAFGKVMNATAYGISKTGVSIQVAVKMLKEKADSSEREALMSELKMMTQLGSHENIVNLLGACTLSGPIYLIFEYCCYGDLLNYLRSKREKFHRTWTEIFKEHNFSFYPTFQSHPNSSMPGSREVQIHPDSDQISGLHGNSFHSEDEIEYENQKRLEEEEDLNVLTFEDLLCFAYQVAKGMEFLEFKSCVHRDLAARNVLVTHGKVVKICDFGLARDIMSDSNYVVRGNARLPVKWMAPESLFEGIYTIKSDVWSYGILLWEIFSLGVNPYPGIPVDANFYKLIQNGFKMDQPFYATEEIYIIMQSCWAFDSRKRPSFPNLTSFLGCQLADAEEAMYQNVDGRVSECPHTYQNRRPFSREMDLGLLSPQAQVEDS
Method in brief: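 GST-tagged human FLT3 (564-993), expressed in sf9 cells, phosphorylated a biotinylated Gastrin Precursor (Tyr 87)-derived peptide for 30 min at room temperature before EDTA stop. The captured peptide was detected by Eu-labelled anti-phosphotyrosine DELFIA time-resolved fluorescence. IC50 was derived from % inhibition curves.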

Compound | IC50 (human Aurora A) | IC50 (human FLT4) | IC50 (human FLT3)
NC(=O)c1nc(-c2c(F)cccc2N2CCC(O)CC2)oc1-c1ccc(OCCN2CCC(O)CC2)cc1 [Example S-3, 2-(2-fluoro-6-(4-hydroxypiperidin-1-yl)phenyl)-5-(4-(2-(4-hydroxypiperidin-1-yl)ethoxy)phenyl)oxazole-4-carboxamide] | < 100 µM | < 100 µM | < 100 µM
CN(CCOc1ccc(-c2oc(-c3c(F)cccc3F)nc2C(N)=O)cc1)Cc1ccccc1 [Example S-11, 5-(4-(2-(benzyl(methyl)amino)ethoxy)phenyl)-2-(2,6-difluorophenyl)oxazole-4-carboxamide] | < 100 µM | < 10 µM | < 10 µM
NC(=O)c1nc(-c2c(F)cccc2F)oc1-c1ccc(OCCCN2CCOCC2)cc1 [Example S-13, 2-(2,6-difluorophenyl)-5-(4-(3-morpholinopropoxy)phenyl)oxazole-4-carboxamide] | < 10 µM | < 10 µM | < 10 µM
NC(=O)c1nc(-c2c(F)cccc2F)oc1-c1ccc(OCC(O)CN2CCCCC2)cc1 (stereo not drawn) [Example T-1, 2-(2,6-difluorophenyl)-5-(4-(2-hydroxy-3-(piperidin-1-yl)propoxy)phenyl)oxazole-4-carboxamide] | < 10 µM | < 10 µM | < 10 µM
NC(=O)c1nc(-c2c(F)cccc2F)oc1-c1ccc(OCC(O)CN2CCOCC2)cc1 (stereo not drawn) [Example T-2, 2-(2,6-difluorophenyl)-5-(4-(2-hydroxy-3-morpholinopropoxy)phenyl)oxazole-4-carboxamide] | < 10 µM | < 10 µM | < 10 µM
CN1CCN(CC(O)COc2ccc(-c3oc(-c4c(F)cccc4F)nc3C(N)=O)cc2)CC1 (stereo not drawn) [Example T-3, 2-(2,6-difluorophenyl)-5-(4-(2-hydroxy-3-(4-methylpiperazin-1-yl)propoxy)phenyl)oxazole-4-carboxamide] | < 10 µM | < 10 µM | < 10 µM
NC(=O)c1nc(-c2c(F)cccc2F)oc1-c1ccc(OCC(O)CN2CCC(O)CC2)cc1 (stereo not drawn) [Example T-4, 2-(2,6-difluorophenyl)-5-(4-(2-hydroxy-3-(4-hydroxypiperidin-1-yl)propoxy)phenyl)oxazole-4-carboxamide] | < 10 µM | < 10 µM | < 10 µM
NC(=O)c1nc(-c2c(F)cccc2F)oc1Nc1ccc(C(=O)O)cc1 [Example U-1, 4-(4-carbamoyl-2-(2,6-difluorophenyl)oxazol-5-ylamino)benzoic acid] | < 10 µM | < 10 µM | < 10 µM
NC(=O)c1nc(-c2c(F)cccc2F)oc1Nc1ccc(C(=O)NCC2CN(Cc3ccccc3)CCO2)cc1 (stereo not drawn) [Example U-5, 5-(4-(((4-benzylmorpholin-2-yl)methyl)carbamoyl)phenylamino)-2-(2,6-difluorophenyl)oxazole-4-carboxamide] | < 10 µM | < 10 µM | < 10 µM
NC(=O)c1nc(-c2c(F)cccc2F)oc1Nc1ccc(C(=O)N2CCC[C@@H]2CO)cc1 [Example U-12, (R)-2-(2,6-difluorophenyl)-5-(4-(2-(hydroxymethyl)pyrrolidine-1-carbonyl)phenylamino)oxazole-4-carboxamide] | < 10 µM | < 10 µM | < 10 µM
NC(=O)c1nc(-c2c(F)cccc2F)oc1Nc1ccc(C(=O)N2CCC[C@H]2CO)cc1 [Example U-13, (S)-2-(2,6-difluorophenyl)-5-(4-(2-(hydroxymethyl)pyrrolidine-1-carbonyl)phenylamino)oxazole-4-carboxamide] | < 10 µM | < 10 µM | < 10 µM
NC(=O)c1nc(-c2c(F)cccc2F)oc1Nc1ccc(C(=O)N2CCCCC2CO)cc1 (stereo not drawn) [Example U-14, 2-(2,6-difluorophenyl)-5-(4-(2-(hydroxymethyl)piperidine-1-carbonyl)phenylamino) oxazole-4-carboxamide] | < 10 µM | < 10 µM | < 10 µM
NC(=O)c1nc(-c2c(F)cccc2F)oc1Nc1ccc(C(=O)N2CCCC(O)C2)cc1 (stereo not drawn) [Example U-15, 2-(2,6-difluorophenyl)-5-(4-(3-hydroxypiperidine-1-carbonyl)phenylamino)oxazole-4-carboxamide] | < 10 µM | < 10 µM | < 10 µM
NC(=O)c1nc(-c2c(F)cccc2F)oc1Nc1ccc(C(=O)NCCO)cc1 [Example U-16, 5-(4-((2-hydroxyethyl)carbamoyl)phenylamino)-2-(2,6-difluorophenyl)oxazole-4-carboxamide] | < 10 µM | < 10 µM | < 10 µM

The next lines start with the values.

IC50 (human Aurora A) | IC50 (human FLT4) | IC50 (human FLT3) | Compound
< 10 µM | < 10 µM | < 100 µM | CN1CCN(CCOc2ccc(-c3oc(-c4c(F)cccc4F)nc3C(N)=O)cc2)CC1 [Example S-1, 2-(2,6-difluorophenyl)-5-(4-(2-(4-methylpiperazin-1-yl)ethoxy)phenyl)oxazole-4-carboxamide]
< 10 µM | < 10 µM | < 100 µM | NC(=O)c1nc(-c2c(F)cccc2F)oc1-c1ccc(OCCN2CCC(O)CC2)cc1 [Example S-4, 2-(2,6-difluorophenyl)-5-(4-(2-(4-hydroxypiperidin-1-yl)ethoxy)phenyl)oxazole-4-carboxamide]
< 10 µM | < 10 µM | < 100 µM | NC(=O)c1nc(-c2c(F)cccc2F)oc1-c1ccc(OCCN2CCC[C@H]2CO)cc1 [Example S-5, (S)-2-(2,6-difluorophenyl)-5-(4-(2-(2-(hydroxymethyl)pyrrolidin-1-yl)ethoxy)phenyl)oxazole-4-carboxamide]
< 10 µM | < 10 µM | < 10 µM | NC(=O)c1nc(-c2c(F)cccc2F)oc1-c1ccc(OCCN2CCC[C@@H]2CO)cc1 [Example S-6, (R)-2-(2,6-difluorophenyl)-5-(4-(2-(2-(hydroxymethyl)pyrrolidin-1-yl)ethoxy)phenyl)oxazole-4-carboxamide]
< 10 µM | < 10 µM | < 10 µM | NC(=O)c1nc(-c2c(F)cccc2F)oc1-c1ccc(OCCN2CCN(CCO)CC2)cc1 [Example S-7, 2-(2,6-difluorophenyl)-5-(4-(2-(4-(2-hydroxyethyl)piperazin-1-yl)ethoxy)phenyl)oxazole-4-carboxamide]
< 10 µM | < 10 µM | < 10 µM | CN(CCO)CCOc1ccc(-c2oc(-c3c(F)cccc3F)nc2C(N)=O)cc1 [Example S-8, 2-(2,6-difluorophenyl)-5-(4-(2-((2-hydroxyethyl)(methyl)amino)ethoxy)phenyl)oxazole-4-carboxamide]
< 10 µM | < 10 µM | < 10 µM | NC(=O)c1nc(-c2c(F)cccc2F)oc1-c1ccc(OCCN2CCNC(=O)C2)cc1 [Example S-9, 2-(2,6-difluorophenyl)-5-(4-(2-(3-oxopiperazin-1-yl)ethoxy)phenyl)oxazole-4-carboxamide]
< 10 µM | < 10 µM | < 10 µM | NC(=O)c1nc(-c2c(F)cccc2F)oc1-c1ccc(OCCN2CCC(C(N)=O)CC2)cc1 [Example S-10, 1-(2-(4-(4-carbamoyl-2-(2,6-difluorophenyl)oxazol-5-yl)phenoxy)ethyl)piperidine-4-carboxamide]
< 10 µM | < 10 µM | < 10 µM | NC(=O)c1nc(-c2c(F)cccc2F)oc1-c1ccc(OCCCN2CCCCC2)cc1 [Example S-12, 2-(2,6-difluorophenyl)-5-(4-(3-(piperidin-1-yl)propoxy)phenyl)oxazole-4-carboxamide]

From patent publication US9187465B2, “Oxazole tyrosine kinase inhibitors” (Sareum Limited, priority 2007, dated 2015)
